System: HMOX1 in Normal Human Lung Fibroblasts (NHLF)
Assay: HMOX1 Protein Expression (immunostaining, fold induction or % positive cells over DMSO)
Details: for Hill slope of DMF dose response curves in Table 2: % Positive HMOX
Method: Normal Human Lung Fibroblasts (NHLF) obtained from Lonza were cultured in T-225 flasks using conditions recommended by the vendor (FGM-2 medium supplemented with 2% fetal bovine serum (FBS), fibroblast growth factor (hFGF-B) 0.5 mL, insulin 0.5 mL, and gentamicin/amphotericin-B 0.5 mL at 37° C. in a humidified atmosphere of 5% CO2).
For assays, cell were thawed and placed into culture in T225 flasks, grown to be 80% confluent, and harvested as described by the vendor. NHLF cells (2.5×10^4 cells per well) were plated in 384 well optilux tissue culture (BD) plates and incubated overnight in media prior to exposure to compound. Cells were incubated with DMSO or various combinations of either an Nrf2 Activator (DMF (dimethyl fumarate)/CDDO-Me) or a Bach1 Inhibitor for 16-18 hr. Cells were then fixed and permeabilized prior to incubation with HMOX1 antibody (abcam; 1:300 dilution in 1% BSA in PBS) for 1 hour. Cells were then washed and incubated with a solution of fluorescently-coupled goat anti-mouse antibody (Alexa 488 1:400 dilution Invitrogen) and Hoechst nuclear stain (1:2000; Invitrogen) in PBS containing 1% BSA for 1 hr. Immunostaining was detected using a GE InCell 2000 instrument at the following wavelengths: Hoechst Ex/Em 360/535 and Alexa 488 Ex/Em 480/535. Results were analyzed using GE InCell Analyzer software and represented as the increase fold of HMOX1 induction (Fold induction/FI) or the percentage of HMOX1 positive (% positive) cells over DMSO.

Cn1c(Nc2nc3ccc(C(F)(F)F)cc3s2)nc2cc(C(=O)NCCOCCO)ccc21 [HPP-D, 1-Methyl-2-(6-trifluoromethyl-benzothiazol-2-ylamino)-1H-benzoimidazole-5-carboxylic acid [2-(2-hydroxy-ethoxy)-ethyl]-amide]
Hill slope of DMF dose response curves in Table 2 (Bach1 Inhibitor Conc. 0.019 uM): 2.23 | Hill slope of DMF dose response curves in Table 2 (Bach1 Inhibitor Conc. 0.039 uM): 1.69 | Hill slope of DMF dose response curves in Table 2 (Bach1 Inhibitor Conc. 0.078 uM): 0.90 | Hill slope of DMF dose response curves in Table 2 (Bach1 Inhibitor Conc. 0.156 uM): 0.23 | % Cells Positive HMOX (Cpd. 0.019 uM, DMF 0 uM): 19.42% | Fold Induction of HMOX (Cpd. 0.019 uM, DMF 0 uM): 2.08 fold | % Cells Positive HMOX (Cpd. 0.019 uM, DMF 0.03 uM): 4.94% | Fold Induction of HMOX (Cpd. 0.019 uM, DMF 0.03 uM): 1.31 fold | % Cells Positive HMOX (Cpd. 0.019 uM, DMF 0.1 uM): 4.52% | Fold Induction of HMOX (Cpd. 0.019 uM, DMF 0.1 uM): 1.23 fold | % Cells Positive HMOX (Cpd. 0.019 uM, DMF 0.3 uM): 7.63% | Fold Induction of HMOX (Cpd. 0.019 uM, DMF 0.3 uM): 1.44 fold | % Cells Positive HMOX (Cpd. 0.019 uM, DMF 1 uM): 26.41% | Fold Induction of HMOX (Cpd. 0.019 uM, DMF 1 uM): 2.17 fold | % Cells Positive HMOX (Cpd. 0.019 uM, DMF 3 uM): 80.18% | Fold Induction of HMOX (Cpd. 0.019 uM, DMF 3 uM): 3.55 fold | % Cells Positive HMOX (Cpd. 0.019 uM, DMF 10 uM): 96.12% | Fold Induction of HMOX (Cpd. 0.019 uM, DMF 10 uM): 5.12 fold | % Cells Positive HMOX (Cpd. 0.019 uM, DMF 30 uM): 84.02% | Fold Induction of HMOX (Cpd. 0.019 uM, DMF 30 uM): 4.90 fold | % Cells Positive HMOX (Cpd. 0.039 uM, DMF 0 uM): 28.04% | Fold Induction of HMOX (Cpd. 0.039 uM, DMF 0 uM): 2.51 fold | % Cells Positive HMOX (Cpd. 0.039 uM, DMF 0.03 uM): 11.95% | Fold Induction of HMOX (Cpd. 0.039 uM, DMF 0.03 uM): 1.81 fold | % Cells Positive HMOX (Cpd. 0.039 uM, DMF 0.1 uM): 6.75% | Fold Induction of HMOX (Cpd. 0.039 uM, DMF 0.1 uM): 1.52 fold | % Cells Positive HMOX (Cpd. 0.039 uM, DMF 0.3 uM): 18.66% | Fold Induction of HMOX (Cpd. 0.039 uM, DMF 0.3 uM): 1.81 fold | % Cells Positive HMOX (Cpd. 0.039 uM, DMF 1 uM): 38.70% | Fold Induction of HMOX (Cpd. 0.039 uM, DMF 1 uM): 2.60 fold | % Cells Positive HMOX (Cpd. 0.039 uM, DMF 3 uM): 78.65% | Fold Induction of HMOX (Cpd. 0.039 uM, DMF 3 uM): 4.00 fold | % Cells Positive HMOX (Cpd. 0.039 uM, DMF 10 uM): 99.17% | Fold Induction of HMOX (Cpd. 0.039 uM, DMF 10 uM): 5.64 fold | % Cells Positive HMOX (Cpd. 0.039 uM, DMF 30 uM): 91.91% | Fold Induction of HMOX (Cpd. 0.039 uM, DMF 30 uM): 5.52 fold | % Cells Positive HMOX (Cpd. 0.078 uM, DMF 0 uM): 73.95% | Fold Induction of HMOX (Cpd. 0.078 uM, DMF 0 uM): 4.34 fold | % Cells Positive HMOX (Cpd. 0.078 uM, DMF 0.03 uM): 33.51% | Fold Induction of HMOX (Cpd. 0.078 uM, DMF 0.03 uM): 2.35 fold | % Cells Positive HMOX (Cpd. 0.078 uM, DMF 0.1 uM): 44.61% | Fold Induction of HMOX (Cpd. 0.078 uM, DMF 0.1 uM): 2.87 fold | % Cells Positive HMOX (Cpd. 0.078 uM, DMF 0.3 uM): 61.50% | Fold Induction of HMOX (Cpd. 0.078 uM, DMF 0.3 uM): 3.21 fold | % Cells Positive HMOX (Cpd. 0.078 uM, DMF 1 uM): 84.85% | Fold Induction of HMOX (Cpd. 0.078 uM, DMF 1 uM): 3.83 fold | % Cells Positive HMOX (Cpd. 0.078 uM, DMF 3 uM): 90.28% | Fold Induction of HMOX (Cpd. 0.078 uM, DMF 3 uM): 4.20 fold | % Cells Positive HMOX (Cpd. 0.078 uM, DMF 10 uM): 97.73% | Fold Induction of HMOX (Cpd. 0.078 uM, DMF 10 uM): 6.52 fold | % Cells Positive HMOX (Cpd. 0.078 uM, DMF 30 uM): 91.28% | Fold Induction of HMOX (Cpd. 0.078 uM, DMF 30 uM): 4.80 fold | % Cells Positive HMOX (Cpd. 0.156 uM, DMF 0 uM): 96.31% | Fold Induction of HMOX (Cpd. 0.156 uM, DMF 0 uM): 6.46 fold | % Cells Positive HMOX (Cpd. 0.156 uM, DMF 0.03 uM): 92.53% | Fold Induction of HMOX (Cpd. 0.156 uM, DMF 0.03 uM): 5.22 fold | % Cells Positive HMOX (Cpd. 0.156 uM, DMF 0.1 uM): 88.16% | Fold Induction of HMOX (Cpd. 0.156 uM, DMF 0.1 uM): 4.89 fold | % Cells Positive HMOX (Cpd. 0.156 uM, DMF 0.3 uM): 94.48% | Fold Induction of HMOX (Cpd. 0.156 uM, DMF 0.3 uM): 5.17 fold | % Cells Positive HMOX (Cpd. 0.156 uM, DMF 1 uM): 97.74% | Fold Induction of HMOX (Cpd. 0.156 uM, DMF 1 uM): 6.04 fold | % Cells Positive HMOX (Cpd. 0.156 uM, DMF 3 uM): 99.20% | Fold Induction of HMOX (Cpd. 0.156 uM, DMF 3 uM): 7.69 fold | % Cells Positive HMOX (Cpd. 0.156 uM, DMF 10 uM): 100.00% | Fold Induction of HMOX (Cpd. 0.156 uM, DMF 10 uM): 7.50 fold | % Cells Positive HMOX (Cpd. 0.156 uM, DMF 30 uM): 92.22% | Fold Induction of HMOX (Cpd. 0.156 uM, DMF 30 uM): 6.18 fold | combination effect in terms of the % HMOX positive cells (combination with DMF at concentrations below their maximum effect (Table 2)): additive or greater than additive | change of Hill slope of the DMF dose response curve (FIG. 5) (upon increasing amounts of the Bach1 Inhibitor): reduced

Source: US10898475B2, “Bach1 inhibitors in combination with Nrf2 activators and pharmaceutical compositions thereof” (vTv Therapeutics LLC, priority 2014, dated 2021)
